Holding throughout (assay type): biochemical
The target of one test is T1, Lck (Homo sapiens, UniProt P06239).
T1 construct: Kinases are expressed as either kinase domains or full length constructs; made in house
Briefly: Kinase inhibition assay (33P transfer), Lck. The note with it: read-out: Lck-1. In a few lines:
(§1)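 Radiometric readout: 33P incorporated into surface-bound poly(Glu,Tyr) 4:1 or poly(Arg,Ser) 3:1 is counted by liquid scintillation after a 0.5% phosphoric acid wash. Enzymes were GST or polyHis fusions (kinase domain or full length) from E. coli or High Five insect cells.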

The target of the next test is T2, Zap-70 (Homo sapiens, UniProt P43403).
T2 construct: Kinases are expressed as either kinase domains or full length constructs; made in house
T2 sequence (P43403 1-619): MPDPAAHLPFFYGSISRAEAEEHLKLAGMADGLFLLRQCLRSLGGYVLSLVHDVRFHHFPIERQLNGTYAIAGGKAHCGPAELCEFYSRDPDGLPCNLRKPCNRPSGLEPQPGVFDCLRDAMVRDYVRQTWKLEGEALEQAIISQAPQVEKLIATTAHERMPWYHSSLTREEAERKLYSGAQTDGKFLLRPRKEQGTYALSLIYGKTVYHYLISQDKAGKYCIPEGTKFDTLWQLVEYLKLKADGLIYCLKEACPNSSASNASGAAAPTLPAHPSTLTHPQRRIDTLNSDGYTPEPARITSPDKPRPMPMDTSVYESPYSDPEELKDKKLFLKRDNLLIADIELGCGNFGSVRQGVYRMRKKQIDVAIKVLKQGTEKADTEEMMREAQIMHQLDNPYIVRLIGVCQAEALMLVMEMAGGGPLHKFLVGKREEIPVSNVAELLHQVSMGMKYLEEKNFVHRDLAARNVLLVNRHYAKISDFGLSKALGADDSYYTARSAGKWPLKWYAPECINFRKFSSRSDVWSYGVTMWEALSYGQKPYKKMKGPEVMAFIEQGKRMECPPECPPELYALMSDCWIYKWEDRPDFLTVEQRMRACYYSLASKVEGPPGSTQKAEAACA
Briefly: Kinase inhibition assay (33P transfer), Zap-70. Particulars: read-out: Zap-1. In a few lines: as §1

For a further test, the target named is T3, Itk (Homo sapiens, UniProt Q08881).
T3 construct: Kinases are expressed as either kinase domains or full length constructs; made in house
T3 sequence (Q08881 1-620): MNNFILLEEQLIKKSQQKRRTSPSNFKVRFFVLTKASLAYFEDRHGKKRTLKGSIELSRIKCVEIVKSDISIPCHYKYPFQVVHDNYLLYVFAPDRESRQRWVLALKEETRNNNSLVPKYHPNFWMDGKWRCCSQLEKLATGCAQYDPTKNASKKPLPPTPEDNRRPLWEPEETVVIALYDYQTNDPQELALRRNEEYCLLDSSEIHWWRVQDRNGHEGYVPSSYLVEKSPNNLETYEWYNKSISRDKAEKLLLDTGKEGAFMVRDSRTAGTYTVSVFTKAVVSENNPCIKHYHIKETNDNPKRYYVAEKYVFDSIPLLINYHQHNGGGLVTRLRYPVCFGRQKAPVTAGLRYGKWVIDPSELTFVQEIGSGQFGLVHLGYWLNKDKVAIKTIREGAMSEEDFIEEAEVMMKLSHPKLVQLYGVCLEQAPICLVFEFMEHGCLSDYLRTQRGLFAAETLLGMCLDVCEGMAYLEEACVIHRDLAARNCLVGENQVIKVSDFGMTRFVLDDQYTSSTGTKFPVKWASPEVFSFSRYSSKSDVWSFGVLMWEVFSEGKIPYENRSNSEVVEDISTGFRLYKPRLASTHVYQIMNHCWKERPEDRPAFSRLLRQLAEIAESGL
Briefly: Kinase inhibition assay (33P transfer), Itk. The note with it: read-out: Itk-1. In a few lines: (§2)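 Kinase domains or full-length enzymes, GST- or polyHis-tagged, were expressed in E. coli or baculovirus High Five cells and affinity-purified. Transfer of 33PO4 from ATP onto plate-bound poly(Glu,Tyr) 4:1 or poly(Arg,Ser) 3:1 was counted by liquid scintillation after a 0.5% phosphoric acid wash. IC50 = concentration halving incorporation.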

In the next test the target is T4, EGFR (Homo sapiens, UniProt P00533).
T4 construct: Kinases are expressed as either kinase domains or full length constructs; made in house
Briefly: Kinase inhibition assay (33P transfer), EGFR. The note with it: Table 2, kinase inhibition class; read-out: EGFR-1. The procedure, abridged:
as §2

A further test deals with T5, ErbB2 (Homo sapiens, UniProt P04626).
T5 construct: Kinases are expressed as either kinase domains or full length constructs; made in house
Briefly: Kinase inhibition assay (33P transfer), ErbB2. The note with it: read-out: ErbB2-2. The procedure, abridged:
as §2

The target of another test is T6, Kdr (Homo sapiens, UniProt P35968).
T6 construct: Kinases are expressed as either kinase domains or full length constructs; made in house
Briefly: Kinase inhibition assay (33P transfer), Kdr. The note with it: read-out: KDR-1. In a few lines: as §1

The target of the next test is T7, c-Met (Homo sapiens, UniProt P08581).
T7 construct: Kinases are expressed as either kinase domains or full length constructs; made in house
Briefly: Kinase inhibition assay (33P transfer), c-Met. Particulars: Table 2, kinase inhibition class; read-out: Met-1. The procedure, abridged:
as §2

Another test deals with T8, AKT (Homo sapiens, UniProt Q9Y243).
T8 construct: Kinases are expressed as either kinase domains or full length constructs; made in house
Description: Kinase inhibition assay (33P transfer), AKT. Particulars: Table 2, kinase inhibition class; read-out: AKT3-1. In a few lines: as §1

The next test addresses T9, IGFR-1 (Homo sapiens, UniProt P08069).
T9 construct: Kinases are expressed as either kinase domains or full length constructs; made in house
Description: Kinase inhibition assay, IGFR-1 (Table 2). The note with it: Table 2, kinase inhibition class.

Another test has as its target T10, PDGFRB (Homo sapiens, UniProt P09619).
T10 construct: Kinases are expressed as either kinase domains or full length constructs; made in house
Briefly: Kinase inhibition assay (33P transfer), PDGFRB. The note with it: read-out: PDGFRB-1.

Some results are limits rather than exact numbers.

T7 sequence (P08581 25-1390): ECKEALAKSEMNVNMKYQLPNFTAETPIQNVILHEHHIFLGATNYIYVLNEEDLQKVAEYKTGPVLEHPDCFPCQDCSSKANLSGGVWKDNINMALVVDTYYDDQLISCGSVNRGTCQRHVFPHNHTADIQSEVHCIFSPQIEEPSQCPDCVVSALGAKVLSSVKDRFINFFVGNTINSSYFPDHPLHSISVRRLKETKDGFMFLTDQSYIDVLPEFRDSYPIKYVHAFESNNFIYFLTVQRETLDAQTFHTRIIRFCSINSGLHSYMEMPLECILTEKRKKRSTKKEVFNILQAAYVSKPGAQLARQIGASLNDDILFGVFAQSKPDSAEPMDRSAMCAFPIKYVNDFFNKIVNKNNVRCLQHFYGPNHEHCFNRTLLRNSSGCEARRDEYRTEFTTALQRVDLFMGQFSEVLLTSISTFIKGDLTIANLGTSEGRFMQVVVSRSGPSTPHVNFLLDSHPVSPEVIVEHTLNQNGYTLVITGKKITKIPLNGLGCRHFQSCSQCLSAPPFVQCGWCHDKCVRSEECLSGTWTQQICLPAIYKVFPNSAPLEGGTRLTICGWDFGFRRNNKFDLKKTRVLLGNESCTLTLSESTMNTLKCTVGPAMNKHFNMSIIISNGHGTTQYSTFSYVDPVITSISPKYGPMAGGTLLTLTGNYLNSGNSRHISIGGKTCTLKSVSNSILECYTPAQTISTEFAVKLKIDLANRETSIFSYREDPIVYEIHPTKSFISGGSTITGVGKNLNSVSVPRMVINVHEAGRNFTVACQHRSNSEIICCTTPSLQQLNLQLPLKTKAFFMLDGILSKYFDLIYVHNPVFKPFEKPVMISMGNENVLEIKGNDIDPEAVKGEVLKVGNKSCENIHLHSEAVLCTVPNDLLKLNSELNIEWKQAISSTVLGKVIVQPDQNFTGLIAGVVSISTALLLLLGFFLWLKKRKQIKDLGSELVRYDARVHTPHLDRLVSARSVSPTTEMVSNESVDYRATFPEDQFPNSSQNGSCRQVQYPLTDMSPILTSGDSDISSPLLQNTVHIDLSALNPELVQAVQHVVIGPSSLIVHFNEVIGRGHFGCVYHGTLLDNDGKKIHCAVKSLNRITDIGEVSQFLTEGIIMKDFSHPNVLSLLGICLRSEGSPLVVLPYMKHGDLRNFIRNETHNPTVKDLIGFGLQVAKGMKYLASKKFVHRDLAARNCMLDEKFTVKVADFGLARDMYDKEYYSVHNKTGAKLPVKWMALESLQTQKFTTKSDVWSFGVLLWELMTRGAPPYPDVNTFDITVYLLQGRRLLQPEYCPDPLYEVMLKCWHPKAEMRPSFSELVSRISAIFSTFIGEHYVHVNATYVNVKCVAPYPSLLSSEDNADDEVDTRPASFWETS
T10 sequence (P09619 33-1106, species assumed): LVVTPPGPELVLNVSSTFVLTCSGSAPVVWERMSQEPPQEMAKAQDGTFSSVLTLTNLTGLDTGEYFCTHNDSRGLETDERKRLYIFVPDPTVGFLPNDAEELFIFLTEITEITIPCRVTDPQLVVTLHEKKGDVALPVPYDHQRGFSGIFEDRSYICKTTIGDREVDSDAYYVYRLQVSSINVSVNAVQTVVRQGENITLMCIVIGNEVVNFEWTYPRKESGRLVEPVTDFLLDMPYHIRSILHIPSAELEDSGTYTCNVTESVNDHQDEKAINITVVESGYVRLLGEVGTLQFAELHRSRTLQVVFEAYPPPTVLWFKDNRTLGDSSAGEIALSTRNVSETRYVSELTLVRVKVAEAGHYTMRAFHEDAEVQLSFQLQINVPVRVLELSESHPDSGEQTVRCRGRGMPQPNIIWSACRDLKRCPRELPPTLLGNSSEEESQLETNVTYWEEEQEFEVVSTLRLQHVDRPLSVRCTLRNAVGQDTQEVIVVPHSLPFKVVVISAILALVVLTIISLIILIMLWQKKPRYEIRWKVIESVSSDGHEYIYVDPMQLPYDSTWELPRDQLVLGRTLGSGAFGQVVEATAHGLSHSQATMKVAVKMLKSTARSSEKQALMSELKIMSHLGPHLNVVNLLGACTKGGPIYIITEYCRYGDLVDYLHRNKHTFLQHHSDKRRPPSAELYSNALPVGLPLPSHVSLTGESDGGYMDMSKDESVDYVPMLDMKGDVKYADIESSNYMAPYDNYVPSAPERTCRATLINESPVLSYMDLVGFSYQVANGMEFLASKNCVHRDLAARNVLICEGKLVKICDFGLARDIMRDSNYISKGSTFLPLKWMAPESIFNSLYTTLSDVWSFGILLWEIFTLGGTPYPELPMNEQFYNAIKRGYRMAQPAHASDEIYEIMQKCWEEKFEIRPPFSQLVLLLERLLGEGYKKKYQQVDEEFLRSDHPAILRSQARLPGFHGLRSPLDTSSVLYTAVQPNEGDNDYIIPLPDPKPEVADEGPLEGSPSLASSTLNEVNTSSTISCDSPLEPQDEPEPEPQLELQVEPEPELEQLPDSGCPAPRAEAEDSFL
T1 sequence (P06239 whole entry, species assumed, the tested form may be a part): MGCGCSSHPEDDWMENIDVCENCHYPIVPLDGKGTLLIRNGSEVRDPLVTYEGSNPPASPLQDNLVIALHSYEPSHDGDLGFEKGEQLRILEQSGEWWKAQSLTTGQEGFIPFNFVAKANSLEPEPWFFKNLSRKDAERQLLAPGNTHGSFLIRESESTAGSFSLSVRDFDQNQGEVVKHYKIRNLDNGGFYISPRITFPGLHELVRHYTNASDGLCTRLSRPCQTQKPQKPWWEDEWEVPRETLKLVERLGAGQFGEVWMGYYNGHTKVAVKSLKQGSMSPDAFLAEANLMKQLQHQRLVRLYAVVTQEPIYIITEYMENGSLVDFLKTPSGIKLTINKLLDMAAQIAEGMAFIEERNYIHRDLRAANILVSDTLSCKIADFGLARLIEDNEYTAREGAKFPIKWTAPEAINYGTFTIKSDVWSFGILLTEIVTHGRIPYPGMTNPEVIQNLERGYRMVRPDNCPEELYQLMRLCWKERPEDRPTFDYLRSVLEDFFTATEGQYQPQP
T9 sequence (P08069 31-1367): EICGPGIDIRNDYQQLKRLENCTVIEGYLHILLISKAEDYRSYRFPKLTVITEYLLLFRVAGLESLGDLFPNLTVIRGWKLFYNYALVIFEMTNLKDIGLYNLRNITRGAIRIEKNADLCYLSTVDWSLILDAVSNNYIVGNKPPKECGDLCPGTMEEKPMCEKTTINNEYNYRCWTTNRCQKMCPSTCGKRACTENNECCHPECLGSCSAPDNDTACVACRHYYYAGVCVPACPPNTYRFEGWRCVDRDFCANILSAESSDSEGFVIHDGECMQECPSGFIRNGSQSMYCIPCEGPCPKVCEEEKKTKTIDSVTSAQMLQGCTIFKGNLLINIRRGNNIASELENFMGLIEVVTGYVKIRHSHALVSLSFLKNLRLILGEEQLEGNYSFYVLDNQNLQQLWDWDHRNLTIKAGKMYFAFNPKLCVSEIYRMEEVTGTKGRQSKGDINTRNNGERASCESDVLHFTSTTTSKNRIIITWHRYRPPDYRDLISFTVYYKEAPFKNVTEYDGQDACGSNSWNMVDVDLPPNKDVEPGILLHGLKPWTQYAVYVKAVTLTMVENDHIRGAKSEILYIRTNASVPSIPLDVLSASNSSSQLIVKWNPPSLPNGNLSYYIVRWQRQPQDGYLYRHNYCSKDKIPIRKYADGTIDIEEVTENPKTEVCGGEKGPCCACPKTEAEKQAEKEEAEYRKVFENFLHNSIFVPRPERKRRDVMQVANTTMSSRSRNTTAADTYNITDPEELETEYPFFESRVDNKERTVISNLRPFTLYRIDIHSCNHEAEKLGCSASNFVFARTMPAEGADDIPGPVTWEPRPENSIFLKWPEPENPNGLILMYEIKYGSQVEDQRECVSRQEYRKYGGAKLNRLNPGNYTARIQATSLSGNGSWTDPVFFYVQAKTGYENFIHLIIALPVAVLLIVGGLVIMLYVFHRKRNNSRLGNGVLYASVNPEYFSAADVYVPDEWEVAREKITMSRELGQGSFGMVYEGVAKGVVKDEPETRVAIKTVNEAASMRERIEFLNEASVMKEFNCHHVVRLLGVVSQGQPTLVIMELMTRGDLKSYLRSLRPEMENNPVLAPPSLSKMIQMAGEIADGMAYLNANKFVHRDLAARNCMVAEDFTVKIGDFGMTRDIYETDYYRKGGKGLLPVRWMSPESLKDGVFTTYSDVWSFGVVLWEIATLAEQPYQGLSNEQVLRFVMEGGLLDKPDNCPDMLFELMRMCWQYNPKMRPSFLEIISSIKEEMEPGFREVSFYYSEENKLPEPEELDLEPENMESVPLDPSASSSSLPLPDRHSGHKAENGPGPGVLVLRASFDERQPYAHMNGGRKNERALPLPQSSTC
T8 sequence (Q9Y243 whole entry, the tested form may be a part): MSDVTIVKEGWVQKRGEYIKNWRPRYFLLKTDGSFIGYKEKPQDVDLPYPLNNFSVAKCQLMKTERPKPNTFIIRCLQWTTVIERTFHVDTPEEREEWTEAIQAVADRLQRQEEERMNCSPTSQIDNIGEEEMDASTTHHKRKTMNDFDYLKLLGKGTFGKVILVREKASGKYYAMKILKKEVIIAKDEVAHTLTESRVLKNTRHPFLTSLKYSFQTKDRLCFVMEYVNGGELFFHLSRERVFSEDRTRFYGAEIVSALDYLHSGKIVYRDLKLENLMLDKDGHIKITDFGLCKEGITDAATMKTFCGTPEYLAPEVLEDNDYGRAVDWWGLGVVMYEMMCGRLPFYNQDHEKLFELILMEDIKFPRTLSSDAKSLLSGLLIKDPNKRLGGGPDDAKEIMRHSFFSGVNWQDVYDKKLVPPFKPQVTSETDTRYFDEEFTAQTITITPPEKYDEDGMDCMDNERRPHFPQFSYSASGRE

For the compound `Cc1ccc2c(c1)CCCN2c1ncnc(NCCc2c[nH]c3ccccc23)n1` [Compound 768], the IC50 is greater than 11.7 µM on Lck; greater than 11.7 µM on Zap-70; greater than 11.7 µM at Itk; greater than 11.7 µM on EGFR; 9.1 to 11.7 µM on ErbB2; 9.1 to 11.7 µM at Kdr. Moreover, the IC50 is 6.24 to 9.1 µM on c-Met, greater than 11.7 µM at AKT, greater than 11.7 µM against IGFR-1 and greater than 11.7 µM at PDGFRB.
Take `c1ccc(CNc2nc3ccccc3n2-c2ncnc(Nc3cccc(Cc4nnn[nH]4)c3)n2)nc1` [Compound 958]: the IC50 on Lck was 0.839 to 5.04 µM; on Zap-70, 5.04 to 7.35 µM; at Itk it was 0.839 to 5.04 µM; on EGFR it was 0.839 to 5.04 µM; on ErbB2 it was 0.839 to 5.04 µM; on Kdr, less than 0.839 µM. For the same compound, the IC50 on c-Met lay in the range of 0.839 to 5.04 µM; on AKT it was 5.04 to 7.35 µM; at IGFR-1 it was 0.839 to 5.04 µM; at PDGFRB it was 0.839 to 5.04 µM.
Take `CN(c1ccccc1)c1ncnc(-n2c(N)nc3ccccc32)n1` [Compound 662]: the IC50 at Lck was 7.56 to 11 µM; at Zap-70 it was greater than 14.2 µM; at Itk, greater than 14.2 µM; on EGFR it was 7.56 to 11 µM; on ErbB2 it was 7.56 to 11 µM; at Kdr, 1.26 to 7.56 µM. The IC50 on c-Met was greater than 14.2 µM; at AKT, greater than 14.2 µM; on IGFR-1 it was 11 to 14.2 µM; at PDGFRB, greater than 14.2 µM.
Take `CC(C)(C)c1cc(Nc2ncnc(Nc3cccc(Cl)c3)n2)[nH]n1` [Compound 1007]: the IC50 is 1.16 to 6.98 µM at Lck; greater than 13.1 µM on Zap-70; 1.16 to 6.98 µM on Itk; less than 1.16 µM on EGFR; 1.16 to 6.98 µM at ErbB2; 1.16 to 6.98 µM at Kdr. Besides, the IC50 on c-Met is 1.16 to 6.98 µM; on AKT, greater than 13.1 µM; against IGFR-1, less than 1.16 µM; at PDGFRB, greater than 13.1 µM.
For `CN(c1cccc(Cl)c1)c1ncnc(Nc2cccc(Cc3nnn[nH]3)c2)n1` [Compound 720], the IC50 at Lck was 1.02 to 6.09 µM; on Zap-70 it was 6.09 to 8.89 µM; on Itk, greater than 11.4 µM; on EGFR, less than 1.02 µM; on ErbB2, less than 1.02 µM; at Kdr, 1.02 to 6.09 µM. The IC50 at c-Met is less than 1.02 µM; at AKT, greater than 11.4 µM; against IGFR-1 it was greater than 11.4 µM; on PDGFRB, 1.02 to 6.09 µM.
`COc1ccc(N(C)c2ncnc(-n3c(N)nc4ccccc43)n2)cc1` [Compound 663]: the IC50 was greater than 13 µM at Lck; greater than 13 µM on Zap-70; greater than 13 µM at Itk; greater than 13 µM on EGFR; greater than 13 µM on ErbB2; 6.91 to 10.1 µM at Kdr. Besides, the IC50 at c-Met, on AKT, at IGFR-1 and on PDGFRB was greater than 13 µM in each case.
Take `COC(=O)c1sccc1Nc1ncnc(N2CCCc3cc(C)ccc32)n1` [Compound 767]: the IC50 on Lck, at Zap-70, on Itk, at EGFR, on ErbB2 and at Kdr was greater than 11.8 µM each time. Moreover, the IC50 on c-Met, at AKT, against IGFR-1 and at PDGFRB was greater than 11.8 µM each time.
Turning to `CC(=O)NS(=O)(=O)c1ccc(Nc2ncnc(N(C)c3cccc(Cl)c3)n2)cc1` [Compound 751], the IC50 at Lck was 5.54 to 8.09 µM; on Zap-70, greater than 10.4 µM; on Itk, greater than 10.4 µM; on EGFR, less than 0.924 µM; on ErbB2, greater than 10.4 µM; on Kdr, 0.924 to 5.54 µM. Besides, the IC50 is greater than 10.4 µM on c-Met, greater than 10.4 µM at AKT, greater than 10.4 µM against IGFR-1 and 0.924 to 5.54 µM at PDGFRB.
Consider `CCN(c1ccccc1)c1ncnc(Nc2cc(OC)c(OC)c(OC)c2)n1` [Compound 536], for which the IC50 is 1.05 to 6.29 µM on Lck; greater than 11.8 µM on Zap-70; greater than 11.8 µM on Itk; less than 1.05 µM at EGFR; 1.05 to 6.29 µM at ErbB2; less than 1.05 µM on Kdr. Further, the IC50 on c-Met is less than 1.05 µM; at AKT, greater than 11.8 µM; against IGFR-1, 1.05 to 6.29 µM; on PDGFRB it was 1.05 to 6.29 µM.
For the compound `O=C(O)Cc1cccc(Nc2ncnc(-n3c(NCc4ccccc4)nc4ccccc43)n2)c1` [Compound 531], the IC50 on Lck was 0.886 to 5.32 µM; at Zap-70, greater than 9.97 µM; at Itk, greater than 9.97 µM; on EGFR, less than 0.886 µM; at ErbB2 it was less than 0.886 µM; at Kdr, less than 0.886 µM. Besides, the IC50 on c-Met was 7.75 to 9.97 µM; on AKT, greater than 9.97 µM; at IGFR-1, greater than 9.97 µM; at PDGFRB, less than 0.886 µM.
For the compound `COc1ccc(Nc2ncnc(NCCCN3CCCCC3C)n2)cc1OC` (centres unmarked) [Compound 782], the IC50 at Lck, on Zap-70, at Itk, at EGFR, at ErbB2 and on Kdr was greater than 11.6 µM throughout. The IC50 on c-Met is greater than 11.6 µM; on AKT, greater than 11.6 µM; on IGFR-1 it was greater than 11.6 µM; on PDGFRB, 6.21 to 9.06 µM.
For the compound `COc1cc(Nc2ncnc(Nc3cc(F)cc(C(F)(F)F)c3)n2)cc(OC)c1OC` [Compound 632], the IC50 on Lck is 0.91 to 5.46 µM; on Zap-70 it was greater than 10.2 µM; at Itk, greater than 10.2 µM; at EGFR, less than 0.91 µM; on ErbB2 it was 0.91 to 5.46 µM; at Kdr, 7.97 to 10.2 µM. The IC50 at c-Met is greater than 10.2 µM; at AKT, greater than 10.2 µM; on IGFR-1, 0.91 to 5.46 µM; at PDGFRB it was 0.91 to 5.46 µM.
With `COc1ccc([C@H](C)Nc2nc3ccccc3n2-c2ncnc(Nc3cc(OC)c(OC)c(OC)c3)n2)cc1` [Compound 1046], the IC50 is greater than 8.53 µM on Lck; greater than 8.53 µM on Zap-70; greater than 8.53 µM on Itk; greater than 8.53 µM at EGFR; greater than 8.53 µM at ErbB2; less than 0.758 µM on Kdr. The IC50 at c-Met, on AKT, against IGFR-1 and on PDGFRB was greater than 8.53 µM in each case.
For the compound `COc1ccc(Nc2ncnc(NCCC#N)n2)cc1OC` [Compound 787], the IC50 on Lck, on Zap-70, on Itk, on EGFR, on ErbB2 and at Kdr was greater than 15 µM each time. Moreover, the IC50 on c-Met, at AKT, at IGFR-1 and on PDGFRB was greater than 15 µM each time.

Values taken from patent US7074789B2, “Kinase inhibitors” (Amgen Inc., priority 1999, dated 2006).
